Source: patent publication US9744177B2, “Treatment of male androgen deficiency symptoms or diseases with sex steroid precursor combined with SERM” (ENDORECHERCHE, INC., priority 2014, dated 2017)
Entries after “also recorded” stand apart in the source; their conditions may differ. Where a name gives a salt, the structure may show the parent alone. Read-outs that look alike come from different tables or passages of the source. Marks after values point to notes of the source that are not given here.

Columns and labels:
[1] = system: ovariectomized female rats; assay: 26-week treatment of ovariectomized female rats: lumbar spine BMD, total fat, cholesterol, ALP (Example 3, experiment 2); assay type: in vivo, Sprague-Dawley rats; conditions: OVX rats, 26 weeks, serum
Experimental: Ten to twelve week-old female Sprague-Dawley rats (Crl:CD(SD)Br) (Charles River Laboratory, St-Constant, Canada) weighing approximately 220-270 g at start of treatment were used. The animals were acclimatized to the environmental conditions (temperature: 22±3° C.; humidity: 50±20%; 12-h light-12-h dark cycles, lights on at 07:15 h) for at least 1 week before starting the experiments. The animals were housed individually and were allowed free access to tap water and a pelleted certified rodent feed (Lab Diet 5002, Ralston Purina, St-Louis, Mo.). […]
(§1) After 3 months (experiment 1) or 26 weeks (experiment 2) of treatment, individual rats under Isoflurane anesthesia had their whole body skeleton and lumbar spine scanned using dual energy x-ray absorptiometry (DEXA; QDR 4500A, Hologic, Waltham, Mass.) and a Regional High Resolution Scan software. The bone mineral density (BMD) of the lumbar spine (vertebrae L2 to L4) and the total body composition (fat percentage) were determined.
After 3 months (experiment 1) or 26 weeks (experiment 2) of treatment, blood samples were collected at the jugular vein from overnight fasted animals (under Isoflurane anesthesia). […] Serum cholesterol levels and alkaline phospatase activity (ALP) were determined using the Boehringer Mannheim Diagnostic Hitachi 911 Analyzer (Boehringer Mannheim Diagnostic Laboratory Systems).
Data are expressed as means±SEM. […]

[2] = system: estrone-stimulated uterine weight; assay: Antiestrogenic activity: estrone-stimulated uterine weight in ovariectomized mice; assay type: in vivo, BALB/c mice; conditions: OVX mice + estrone; any dose used (1, 3 or 10 μg)
Experimental: (§2) Female BALB/c mice (BALB/cAnNCrlBR) weighing 18-20 g were obtained from Charles-River, Inc. (St-Constant, Quebec, Canada) and housed 5 per cage in a temperature (23±1° C.)- and light (12 h light/day, lights on at 7:15)-controlled environment. The mice were fed rodent chow and tap water ad libitum. The animals were ovariectomized (OVX) under Isoflurane anesthesia via bilateral flank incisions and randomly assigned to groups of 10 animals. Ten mice were kept intact as controls.
(§3) In the second experiment (Table 4), TSE 424 was administered orally by gavage once daily at doses of 1, 3, 10 or 30 μg/animal for 9 days, starting 2 days after ovariectomy. In both experiments, to evaluate the antiestrogenic activity, treatment with estrone (E1, 0.06 μg, s.c. injection, twice daily) was started 5 days post-ovariectomy and was administered for a 6 day-period. Compounds were dissolved in ethanol (4% final concentration) and administered in 0.4% methylcellulose. Mice in the intact and OVX control groups received the vehicle alone (4% ETOH-0.4% methylcellulose) during the 9-day period. The animals were killed by exsanguination at the abdominal aorta on the 11th morning following ovariectomy. The uteri and vagina were rapidly dissected, weighed, and kept in 10% buffered formalin for further histologic examination.

ovariectomized mice = assay: Estrogenic activity: uterine and vaginal weight in ovariectomized mice, compounds alone; assay type: in vivo, BALB/c mice; conditions: OVX mice, no estrone; daily oral 1 μg and 10 μg
Experimental: as §2, §3

[3] = system: biochemical parameters of bone metabolism; assay: Treatment of rats with DHEA and EM-800 alone or in combination: biochemical parameters of bone metabolism, serum lipids; assay type: in vivo; conditions: rat; for effect on serum cholesterol / effect on serum triglycerides: 9 months, DHEA 10 mg percutaneously, EM-800 75 μg orally, once daily (FIG. 10)
Text: Data are expressed as the means±SEM. **: p<0.01 experimental versus respective control.
It is thus important to analyze the changes in biochemical parameters of bone metabolism induced by various compounds and treatments in order to gain a better knowledge of their action (Table 2).
It is particularly important to indicate that the combination of DHEA and acolbifene exerted unexpected beneficial effects on important biochemical parameters of bone metabolism. […] Moreover, no effect of DHEA could be detected on daily urinary calcium or phosphorus excretion (Luo, Sourla et al. 1997). EM-800 (prodrug of acolbifene free salt) decreased the urinary hydroxyproline/creatinine ratio by 48% while, similarly to DHEA, no effect of EM 800 (prodrug of acolbifene, free salt) was seen on urinary calcium or phosphorus excretion. EM-800, moreover, had no effect on serum alkaline phosphatase activity, a marker of bone formation while DHEA increased the value of the parameter by about 75% (Luo, Sourla et al. 1997).

[4] = 50 mg daily, 6 months, cited from earlier work
[5] = 6 months; cited from earlier work
[6] = system: ovariectomized female rats; assay: 5-week treatment of ovariectomized female rats with SERMs alone or with DHEA: BMD (Example 4); assay type: in vivo, Sprague-Dawley rats; conditions: OVX rats, 5 weeks; SERMs 2.5 mg/kg oral, DHEA 80 mg/kg topical
Experimental: (§4) Ten to twelve week-old female Sprague-Dawley rats (Crl:CD(SD)Br) (Charles River Laboratory, St-Constant, Canada) weighing approximately 220-270 g at start of treatment were used. The animals were acclimatized to the environmental conditions (temperature: 22±3° C.; humidity: 50±20%; 12-h light-12-h dark cycles, lights on at 07:15 h) for at least 1 week before starting the experiments. The animals were housed individually and were allowed free access to tap water and a pelleted certified rodent feed (Lab Diet 5002, Ralston Purina, St-Louis, Mo.). Experiments were conducted in an animal facility approved by the Canadian Council on Animal Care (CCAC) and the Association for Assessment and Accreditation of Laboratory Animal Care (AAALAC) in accordance with the CCAC Guide for Care and Use of Experimental Animals.
(§5) On Day 1 of the study, the animals of the appropriate groups were bilaterally ovariectomized (OVX) under isoflurane anesthesia. The DHEA was applied topically on the dorsal skin as a solution in 50% ethanol-50% propylene glycol while the tested SERMs were administered as suspension in 0.4% methylcellulose by oral gavage. Treatments were initiated on Day 2 of the study and were performed once daily during 5 weeks.
After 5 weeks of treatment, individual rats under Isoflurane anesthesia had their lumbar spine, femur and tibia scanned using dual energy x-ray absorptiometry (DEXA; QDR 4500A, Hologic, Waltham, Mass.) and a Regional High Resolution Scan software. The bone mineral density (BMD) of the lumbar spine (vertebrae L2 to L4), distal femoral metaphysis (DFM) and proximal tibial metaphysis (PTM) were determined.
Data are expressed as means±SEM. Statistical significance was determined according to the multiple-range test of Duncan-Kramer {Kramer, 1956 #37421.

ovariectomized rats = assay: 12-month treatment of ovariectomized rats with DHEA alone or with Flutamide or EM-800: bone histomorphometry, bone markers, serum lipids; assay type: in vivo, rat; conditions: OVX rats
[7] = system: ovariectomized female rats; assay: 3-month treatment of ovariectomized female rats: lumbar spine BMD, total fat, cholesterol, ALP (Example 3, experiment 1); assay type: in vivo, Sprague-Dawley rats; conditions: OVX rats, 3 months, serum
Experimental: as §4
as §5, with “while the other tested compounds” for “while the tested SERMs”, “other tested compounds were administered” for “the tested SERMs were administered”, “daily during 3 months.” for “daily during 5 weeks.”
as §1
After 3 months (experiment 1) or 26 weeks (experiment 2) of treatment, blood samples were collected at the jugular vein from overnight fasted animals (under Isoflurane anesthesia). Samples were processed for serum preparation and frozen at −80° C. until assay. Serum cholesterol levels and alkaline phospatase activity (ALP) were determined using the Boehringer Mannheim Diagnostic Hitachi 911 Analyzer (Boehringer Mannheim Diagnostic Laboratory Systems).
Data are expressed as means±SEM. Statistical significance was determined according to the multiple-range test of Duncan-Kramer (Kramer 1956).

serum E2 levels = assay: Serum E2 in a premenopausal person with advanced breast cancer on acolbifene; assay type: in vivo, human; conditions: 20 mg daily oral, 6 months, from 222 before
[8] = system: human ZR-75-1 breast tumors; assay: ZR-75-1 tumor growth in ovariectomized nude mice in absence of estrone (agonistic effects); conditions: no estrone, 200 μg daily, 161 days
uterine epithelial cells = assay: Thickness of uterine (endometrial) epithelial cells in ovariectomized nude mice; conditions: no estrone, 200 μg daily
serum testosterone = assay: Serum testosterone in male cynomolgus monkeys dosed orally; assay type: in vivo; conditions: oral 2.5, 10 or 40 mg acolbifene/day, 13 weeks
Experimental: FIG. 13: Male cynomolgus monkeys were dosed orally with 2.5, 10 or 40 mg acolbifene/day for 13 weeks. Control monkeys received vehicle alone (0.4% methylcellulose). […] Results are expressed as the mean±SEM of 4 monkeys per group. P values (versus control) were calculated using a two-sided t test assuming equality of variances. FIG. 14: […] Control monkeys received vehicle alone (0.4% methylcellulose). […] P values (versus control) were calculated using a two-sided t test assuming equality of variances.

Oc1ccc2c(c1)CC[C@H](c1ccccc1)[C@@H]2c1ccc(OCCN2CCCC2)cc1 (racemic) [lasofoxifene, (−)-cis-(5R,6S)-6-phenyl-5-[4-(2-pyrrolidin-1-ylethoxy)phenyl]-5,6,7,8-tetrahydronaphthalen-2-ol, D-(−)-tartrate salt]
CHOLESTEROL [1]: 0.60 ± 0.02 mmol/L

Oc1ccc2c(c1)CC[C@@H](c1ccccc1)[C@H]2c1ccc(OCCN2CCCC2)cc1 (single isomer, unassigned) [inactive enantiomer of lasofoxifene]
inhibitory effect on estrone-stimulated uterine weight [2]: no inhibitory effect | stimulatory effect on uterine weight (ovariectomized mice): no stimulatory effect | stimulatory effect on vaginal weight (ovariectomized mice): no stimulatory effect

C[C@]12CC[C@H](O)CC1=CC[C@@H]1[C@@H]2CC[C@]2(C)C(=O)CC[C@@H]12 [DHEA, dehydroepiandrosterone]
effect on serum cholesterol [3]: no effect | effect on serum triglycerides [3]: inhibitory effect | decrease of responsiveness of serum insulin to the glucose tolerance test [4]: 13% | improvement in the insulin sensitivity index [4]: 34% | decrease of abdominal subcutaneous fat ([4]; both women and men): 6% | decrease of abdominal visceral fat ([4]; men 65 to 78 years): 7.4% | decrease of abdominal visceral fat ([4]; women 65 to 78 years): 10.2% | decrease of total body fat mass [5]: 1.4 kg | increase of fat-free mass [5]: 0.9 kg | DISTAL FEMORAL METAPHYSIS (DFM) BMD [6]: 0.2934 ± 0.0046 g/cm^2 | DISTAL FEMORAL METAPHYSIS (DFM) Prevention of Bone Loss [6]: 71% | LUMBAR SPINE (L2-L4) BMD [6]: 0.2144 ± 0.0028 g/cm^2 | LUMBAR SPINE (L2-L4) Prevention of Bone Loss [6]: 44% | PROXIMAL TIBIAL METAPHYSIS (PFM) BMD [6]: 0.2672 ± 0.0041 g/cm^2 | PROXIMAL TIBIAL METAPHYSIS (PFM) Prevention of Bone Loss [6]: 42% | increase in trabecular bone number compared to ovariectomized controls (ovariectomized rats): 137% | reduction (inhibitory effect) of serum cholesterol (ovariectomized rats): 22% | trabecular bone number (ovariectomized rats): 1.27±0.1 per mm | trabecular bone volume of the tibia (ovariectomized rats): 11.9±0.6% | Alkaline phosphatase (ovariectomized rats; serum): 201±25 IU/L | CHOLESTEROL (ovariectomized rats; serum): 1.78 ± 0.16 mmol/L | Triglycerides (ovariectomized rats; serum): 0.8 ± 0.1 mmol/L | OH-proline/creatinine (ovariectomized rats; urine): 7.3±1.0 μmol/mmol

C[C@]12CC[C@@H]3c4ccc(O)cc4CC[C@H]3[C@@H]1CC[C@@H]2O [E2, 17β-estradiol]
ALP [7]: 59 ± 4 IU/L

CC1=C(c2ccc(O)cc2)[C@H](c2ccc(OCCN3CCCCC3)cc2)Oc2cc(O)ccc21.Cl [EM-652.HCl, (S)-(+)-7-hydroxy-3-(4′-hydroxyphenyl)-4-methyl-2-(4″-(2′″-piperidinoethoxy)phenyl)-2H-1-benzopyran hydrochloride]
ALP [7]: 91 ± 6 IU/L | CHOLESTEROL [7]: 0.87 ± 0.04 mmol/L | CHOLESTEROL [1]: 0.98 ± 0.06 mmol/L | serum E2 levels (serum E2 levels): 2030 pg/mL | effect of compound alone on ZR-75-1 tumor size compared to OVX control ([8]; hydrochloride): did not exert any stimulatory effect; also recorded: did not significantly change | effect of compound alone on ZR-75-1 tumor size compared to OVX control ([8]; listed as Acolbifene, hydrochloride): no effect on tumor growth | height of uterine epithelial cells, % of the OVX control group value (uterine epithelial cells): 114% | serum testosterone levels (FIGS. 13 and 14) (serum testosterone): increased serum testosterone levels

CC1=C(c2ccc(OC(=O)C(C)(C)C)cc2)[C@H](c2ccc(OCCN3CCCCC3)cc2)Oc2cc(OC(=O)C(C)(C)C)ccc21 [EM-800, (S)-(+)-4-[7-(2,2-dimethyl-1-oxopropoxy)-4-methyl-2-[4-[2-(1-piperidinyl)-ethoxy]phenyl]-2H-1-benzopyran-3-yl]-phenyl 2,2-dimethylpropanoate]
effect on serum cholesterol [3]: decreases | effect on serum triglycerides [3]: decreases | URINE HP/Cr (hydroxyproline/creatinine ratio) ([3]; DHEA 10 mg, EM-800 75 μg): 6.81 ± 0.84** μmol/mmol

CC/C(=C(\c1ccccc1)c1ccc(/C=C/C(=O)O)cc1)c1ccccc1 [GW 5638]
ALP [7]: 72 ± 6 IU/L | effect of compound alone on ZR-75-1 tumor size compared to OVX control [8]: did not significantly change

CC/C(=C(/c1ccc(OCCN(C)C)cc1)c1cccc(O)c1)c1ccccc1 [droloxifene, (E)-3-[1-[4-[2-(Dimethylamino)ethoxy]phenyl]-2-phenyl-1-butenyl]phenol]
effect of compound alone on ZR-75-1 tumor size compared to OVX control [8]: did not significantly change

Cl.O=C(c1ccc(OCCN2CCCCC2)cc1)c1c(-c2ccc(O)cc2)sc2cc(O)ccc12 [raloxifene, [2-(4-hydroxyphenyl)-6-hydroxybenzo[b]thien-3-yl][4-[2-(1-piperidinyl)ethoxy]phenyl]-methanone hydrochloride]
effect of compound alone on ZR-75-1 tumor size compared to OVX control [8]: did not significantly change

CC/C(=C(\c1ccccc1)c1ccc(OCCN(C)C)cc1)c1ccccc1 [tamoxifen, (Z)-2-[4-(1,2-diphenyl-1-butenyl)phenoxy]-N,N-dimethylethanamine]
stimulatory effect on tumor growth (FIG. 15) ([8]; OVX nude mice): approximately 100%

CN(C)CCOc1ccc(/C(=C(/CCCl)c2ccccc2)c2ccccc2)cc1 [toremifene, (Z)-2-[4-(4-Chloro-1,2-diphenyl-1-butenyl)phenoxy]-N,N-dimethylethanamine]
average tumor size increase over baseline ([8]; OVX nude mice): 86%
